One test relates to mature adipocytes. Kind of test: Adipocyte lipolysis assay. The test is classed as cell-based. The settings on record: glycerol in supernatant after overnight culture with IBMX (100 μM), relative to DMSO controls. The method, then:
Preadipocytes purchased from Zen Bio were plated at 8.7×10 ^4 cells/well in 96-well plates, differentiated for 14 days and mature adipocytes assayed during days 15 through 21. Adipocyte maturation is assessed by the presence of rounded cells with large lipid droplets in the cytoplasm. Following maturation, cells were washed and incubated overnight with IBMX (100 μM) and various concentrations of compound diluted in assay buffer containing a final DMSO concentration of 0.1%. After overnight culture, the glycerol concentration in the supernatants was determined with the Lipolysis Assay Kit purchased from Zen-Bio. Absorbance at 540 nm is directly proportional to the glycerol concentration in the sample. IC50 determinations were based on compound inhibition relative to DMSO controls.

Test [1] concerns the target T1, human HM74a (Homo sapiens, UniProt Q8TDS4). The test is described as follows: cAMP assay. The settings on record: CHO cells stably transfected with human HM74a; 5 μM forskolin; inhibition relative to DMSO controls. Type of test: cell-based. Set-up: expressed in transfected cells. As for the experimental part: CHO cells stably transfected with human HM74a were seeded at 7,500 cells/well in a 96-well plate in HAMS F12 medium with 10% FBS. The plate was incubated overnight at 37° C. and 5% CO2. The test compounds were prepared in a stimulation buffer containing 1×HANKS, 20 mM HEPES, 5 μM forskolin, and 0.25 mM IBMX. The media from the cell plate was removed before adding 30 μL of the test compounds. After 30 minute incubation at 37° C. and 5% CO2, the cAMP level was assayed using HitHunter cAMP XS assay kit (DiscoverX, CA). IC50 determinations were based on compound inhibition relative to DMSO controls.

The target in test [2] is T1, human HM74a. The test is described as follows: GTPγS recruitment assay. The test is classed as biochemical. Set-up: expressed in transfected cells; host or cells: HEK293 (transient transfection; membranes). Conditions: membranes of HEK293 cells transfected with human HM74a and Gα0; 35S GTPγS. The method, then:
Membranes were prepared from HEK293 cells transiently transfected with human HM74a and Gα0 protein. Assays were performed in 384-well format in a volume of 50 μL per assay point. Serial dilutions of compounds were prepared in the assay buffer (20 mM HEPES pH. 7.4, 100 mM NaCl, 10 mM MgCl2, 10 mg/L saponin and 10 μM GDP) and mixed with membranes (2 μg per assay point) and ^35S GTPγS (Amersham, 0.3 nM) in the assay buffer. The mixtures were incubated at room temperature for 30 mM and wheat germ agglutinin SPA beads (Amersham) (0.2 mg per assay point) in the assay buffer were added. After […] incubation with agitation, plates were centrifuged at 1500 g for 5 mM and bound ^35S GTPγS was determined by counting on a TopCount scintillation counter. […] For example, the compound of Example 1 has an EC50 of 80 nM in this assay.

The conditions of test [3]: cited from earlier work.

T1 sequence (Q8TDS4 whole entry): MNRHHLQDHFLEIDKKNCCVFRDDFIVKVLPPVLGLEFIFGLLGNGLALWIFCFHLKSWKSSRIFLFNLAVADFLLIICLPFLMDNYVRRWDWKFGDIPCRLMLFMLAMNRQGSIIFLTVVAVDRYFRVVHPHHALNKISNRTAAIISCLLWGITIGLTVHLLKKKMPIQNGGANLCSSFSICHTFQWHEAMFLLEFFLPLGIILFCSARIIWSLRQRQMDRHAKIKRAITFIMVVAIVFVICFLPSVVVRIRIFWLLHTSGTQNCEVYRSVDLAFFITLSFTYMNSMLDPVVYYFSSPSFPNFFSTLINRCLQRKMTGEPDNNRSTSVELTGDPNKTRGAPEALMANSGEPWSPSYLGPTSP

On to `CCCCCn1c2nc(Br)[nH]c2c(=O)n2c(CCc3nc(Cc4ccncc4)no3)nnc12` [Example 77, 7-bromo-9-pentyl-3-{2-[3-(pyridine-4-ylmethyl)-1,2,4-oxadiazol-5-yl]ethyl}-6,9-dihydro-5H-[1,2,4]triazolo[4,3-a]purin-5-one], for which the IC50 in the test with mature adipocytes was 37 nM.
For the compound `CCCCCn1c2nc(C(F)(F)F)[nH]c2c(=O)n2c(C)nnc12` [Example 1, 3-methyl-9-pentyl-7-(trifluoromethyl)-6,9-dihydro-5H-[1,2,4]triazolo[4,3-a]purin-5-one], at human HM74a [1], half-maximal inhibition (IC50) was put at 20 nM. For the same compound, the concentration for a half-maximal effect (EC50) on human HM74a [2] is 80 nM.
As to `O=C1[C@H](CC[C@H](O)c2ccc(F)cc2)[C@@H](c2ccc(O)cc2)N1c1ccc(F)cc1` [Ezetimibe], the “maximal LDL reductions” value in test [3] (co-formulated with a statin) is listed as “exceed 60%”. Moreover, the “lowers LDL” value in test [3] (monotherapy) is on record as 20%.
For the compound `O=C(O)c1cccnc1` [Nicotinic acid, nicotinic acid], in test [3] (human, in vivo), the “lowering circulating plasma LDL” value is 16%, the lowering triglycerides was 38% and the “raising HDL levels” value is 20-30%.

Values taken from patent US8703783B2, “Purinone derivatives as HM74A agonists” (Incyte Corporation, priority 2006, dated 2014).
